Test results as given in US12157746B2, “Tetrahydro-1H-pyrazino[2,1-a]isoindolylquinoline compounds for the treatment of autoimmune disease” (F. HOFFMANN-LA ROCHE AG, priority 2018, dated 2024).

Target: T1, human TLR7 (Homo sapiens, UniProt Q9NYK1)
T1 sequence (Q9NYK1 27-1049): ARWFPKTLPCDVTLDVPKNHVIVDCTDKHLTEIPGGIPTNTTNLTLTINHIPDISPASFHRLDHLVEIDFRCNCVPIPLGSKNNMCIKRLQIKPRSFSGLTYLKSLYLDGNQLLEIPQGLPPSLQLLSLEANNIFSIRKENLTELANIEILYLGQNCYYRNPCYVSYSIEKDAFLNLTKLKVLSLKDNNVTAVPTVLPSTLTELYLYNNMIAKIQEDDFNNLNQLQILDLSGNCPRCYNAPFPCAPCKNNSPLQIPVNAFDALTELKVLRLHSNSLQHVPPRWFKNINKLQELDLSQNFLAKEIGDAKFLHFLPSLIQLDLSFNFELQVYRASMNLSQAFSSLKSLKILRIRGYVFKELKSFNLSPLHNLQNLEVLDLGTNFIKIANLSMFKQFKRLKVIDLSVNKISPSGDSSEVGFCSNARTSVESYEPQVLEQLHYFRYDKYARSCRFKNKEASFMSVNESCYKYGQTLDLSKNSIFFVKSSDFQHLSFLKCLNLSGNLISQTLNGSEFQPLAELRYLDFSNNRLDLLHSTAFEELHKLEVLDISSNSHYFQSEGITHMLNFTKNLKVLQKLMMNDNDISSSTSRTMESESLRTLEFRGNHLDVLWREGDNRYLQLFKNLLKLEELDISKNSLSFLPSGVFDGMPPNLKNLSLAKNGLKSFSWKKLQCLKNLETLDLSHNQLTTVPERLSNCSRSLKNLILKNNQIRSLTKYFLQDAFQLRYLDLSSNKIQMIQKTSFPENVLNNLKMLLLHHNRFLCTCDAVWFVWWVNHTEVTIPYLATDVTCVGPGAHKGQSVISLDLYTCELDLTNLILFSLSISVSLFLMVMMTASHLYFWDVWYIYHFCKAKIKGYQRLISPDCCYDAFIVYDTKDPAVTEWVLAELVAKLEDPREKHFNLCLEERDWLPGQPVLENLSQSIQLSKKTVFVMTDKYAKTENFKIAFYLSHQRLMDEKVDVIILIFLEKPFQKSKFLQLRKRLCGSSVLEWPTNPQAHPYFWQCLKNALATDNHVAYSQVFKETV
Assay: HEK293-Blue-hTLR-7 cells assay
Type: cell-based
Settings: HEK293-Blue-hTLR7 cells, R848 stimulation, 20 hrs, SEAP reporter; read-out: HEK/hTLR7 IC50
How it was run: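 HEK293-Blue-hTLR7 cells (NF-κB/AP-1-driven SEAP reporter) incubated with serially diluted compound (1% DMSO final) and R848 agonist for 20 h at 37 °C. Supernatant SEAP measured with QUANTI-Blue (2 h, 37 °C) by absorbance at 620-655 nm; antagonism seen as reduced reporter.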

Row | SMILES | IC50 [nM]
1 | C[C@@H]1CN(c2ccc(C#N)c3ncccc23)C[C@@H]2c3cc(F)c(N4C[C@H](N)[C@@](C)(O)C4)cc3CN12 [Example 83, 5-[(4R,10bS)-8-[(3S,4S)-4-amino-3-hydroxy-3-methyl-pyrrolidin-1-yl]-9-fluoro-4-methyl-3,4,6,10b-tetrahydro-1H-pyrazino[2,1-a]isoindol-2-yl]quinoline-8-carbonitrile] | 2.7
2 | CO[C@H]1CNC[C@H]1Nc1ccc2c(c1)CN1[C@H](C)CN(c3ccc(C#N)c4ncccc34)C[C@H]21 [Example 61, 5-[(4R,10bS)-8-[[(3R,4S)-4-methoxypyrrolidin-3-yl]amino]-4-methyl-3,4,6,10b-tetrahydro-1H-pyrazino[2,1-a]isoindol-2-yl]quinoline-8-carbonitrile] | 5.7
3 | CO[C@@H]1CNC[C@H]1Nc1cc2c(cc1C)[C@H]1CN(c3ccc(C#N)c4ncccc34)C[C@@H](C)N1C2 [Example 63, 5-[(4R,10bS)-8-[[(3R,4R)-4-methoxypyrrolidin-3-yl]amino]-4,9-dimethyl-3,4,6,10b-tetrahydro-1H-pyrazino[2,1-a]isoindol-2-yl]quinoline-8-carbonitrile] | 7.3
4 | C[C@@H]1CN(c2ccc(C#N)c3ncccc23)C[C@@H]2c3ccc(NCC4COCCN4)cc3CN12 (stereo partly drawn) [Example 57, 5-[(4R,10bS)-4-methyl-8-(morpholin-3-ylmethylamino)-3,4,6,10b-tetrahydro-1H-pyrazino[2,1-a]isoindol-2-yl]quinoline-8-carbonitrile] | 11.1
5 | CO[C@H]1CNC[C@@H]1Nc1ccc2c(c1)CN1[C@H](C)CN(c3ccc(C#N)c4ncccc34)C[C@H]21 [Example 62, 5-[(4R,10bS)-8-[[(3S,4S)-4-methoxypyrrolidin-3-yl]amino]-4-methyl-3,4,6,10b-tetrahydro-1H-pyrazino[2,1-a]isoindol-2-yl]quinoline-8-carbonitrile] | 5.9
6 | C[C@@H]1CN(c2ccc(C#N)c3ncccc23)C[C@@H]2c3cc(F)c(N4CC5(CNC5)C4)cc3CN12 [Example 84, 5-[(4R,10bS)-8-(2,6-diazaspiro[3.3]heptan-2-yl)-9-fluoro-4-methyl-3,4,6,10b-tetrahydro-1H-pyrazino[2,1-a]isoindol-2-yl]quinoline-8-carbonitrile] | 2.6
7 | CO[C@H]1CNC[C@@H]1N(C)c1ccc2c(c1)CN1[C@H](C)CN(c3ccc(C#N)c4ncccc34)C[C@H]21 [Example 64, 5-[(4R,10bS)-8-[[(3S,4S)-4-methoxypyrrolidin-3-yl]-methyl-amino]-4-methyl-3,4,6,10b-tetrahydro-1H-pyrazino[2,1-a]isoindol-2-yl]quinoline-8-carbonitrile] | < 3.2

Now from value to molecule:

Row | IC50 [nM] | SMILES
8 | < 3.2 | C[C@@H]1CN(c2ccc(C#N)c3ncccc23)C[C@@H]2c3ccc(N4CCNCC4)cc3CN12 [Example 1, 5-[(4R,10bS)-4-methyl-8-piperazin-1-yl-3,4,6,10b-tetrahydro-1H-pyrazino[2,1-a]isoindol-2-yl]quinoline-8-carbonitrile]
9 | 4.4 | C[C@@H]1CN(c2ccc(C#N)c3ncccc23)C[C@@H]2c3ccc(N[C@@H]4CCCNC4)cc3CN12 [Example 65, 5-[(4R,10bS)-4-methyl-8-[[(3R)-3-piperidyl]amino]-3,4,6,10b-tetrahydro-1H-pyrazino[2,1-a]isoindol-2-yl]quinoline-8-carbonitrile]
10 | 3.7 | C[C@@H]1CN(c2ccc(C#N)c3ncccc23)C[C@@H]2c3ccc(C(=O)N4CCC(C)(N)CC4)cc3CN12 [Example 88, 5-[(4R,10bS)-8-(4-amino-4-methyl-piperidine-1-carbonyl)-4-methyl-3,4,6,10b-tetrahydro-1H-pyrazino[2,1-a]isoindol-2-yl]quinoline-8-carbonitrile]
11 | 11.1 | C[C@@H]1CN(c2ccc(C#N)c3ncccc23)C[C@@H]2c3ccc(N[C@@H]4CNCCOC4)cc3CN12 [Example 56A, 5-[(4R,10bS)-4-methyl-8-[[(6R)-1,4-oxazepan-6-yl]amino]-3,4,6,10b-tetrahydro-1H-pyrazino[2,1-a]isoindol-2-yl]quinoline-8-carbonitrile]
